{"source": "patent US12636340B2", "about": "“Methods of treating multiple myeloma” (ONYX PHARMACEUTICALS, INC., priority 2020, dated 2026)", "format": "in vivo", "settings": "both treatment groups together", "experimental": "Key exclusion criteria related to significant baseline pulmonary and cardiac disease, including uncontrolled hypertension (defined as an average systolic blood pressure >159 mmHg or diastolic >99 mmHg despite optimal treatment). Analysis of LVEF changes over time was conducted. Long-term corticosteroid treatment equivalent to a dexamethasone dose of 4.0 mg/day or prednisone at a dose of >20 mg/day was not permitted while receiving study treatment. Corticosteroids administered short-term (up to 2 weeks) were permitted, provided the cumulative dose was less than a 40 mg per week dexamethasone equivalent.\nRandomization was performed using an interactive voice or web response system. […]\nStatistical analysis: Efficacy evaluations were based on the intention-to-treat population. […] For primary and key secondary endpoints, response and disease progression were determined by a blinded Independent Review Committee. Additionally, they were determined locally by investigators in an unblinded manner and centrally by the sponsor using a validated computer algorithm, which served as sensitivity analysis of PFS.\nDescriptive statistics identified the extent of missing data. […] For patients who died on study, the death date was recorded on the end of study CRF page at the end of the study date. […]"}
{"compound": "CC(C)C[C@H](NC(=O)[C@H](CCc1ccccc1)NC(=O)CN1CCOCC1)C(=O)N[C@@H](Cc1ccccc1)C(=O)N[C@@H](CC(C)C)C(=O)[C@@]1(C)CO1", "note": "[carfilzomib]", "values": [{"measurement": "patients who discontinued carfilzomib due to AEs, overall", "result": 21.3, "unit": "%"}]}
